# Data taken from patent US7897750B2, “Strategies for gene expression analysis” (Althea Technologies, Inc., priority 2002, dated 2011).
# Test system: HepG2 cells
# Test: Multiplex rtPCR gene expression time course (15-plex) in treated cells
# Type: cell-based
# Conditions: 5×10^4 HepG2 cells, 25 μM, timepoints T=0, 2, 4, 8, 24, 48, 120 hours, triplicate, FIG. 9
# Procedure: Cells were treated in triplicate and timepoints were collected at T=0, 2, 4, 8, 24, 48, and 120 hours. RNA was isolated using Qiagen's RNeasy kit for 96 well plates and the concentration was monitored using a Ribogreen Assay (Molecular Probes). The concentration of RNA from each sample was normalized to 5 ng/μl. rtPCR was carried out using 25 ng of RNA from each sample and the products were analyzed using an ABI 3100 Genetic Analyzer. Gene expression is expressed as a ratio to that of GAPDH. The multiplex included the following list of genes.
# CV's for all genes and data points within the experiment ranged from a few percent to 20%.
compound,measurement,value
CC[C@H]1CN2CCc3cc(OC)c(OC)cc3[C@@H]2C[C@@H]1C[C@H]1NCCc2cc(OC)c(OC)cc21 [emitine],"GRO1 gene expression, ratio to that of GAPDH",clear trends of induction
same,"Il-8 gene expression, ratio to that of GAPDH",clear trends of induction
